Laboratory results published in PubChem BioAssay (NCI).
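Results reflect a 48-hour exposure of cells in 96-well plates to compound at five concentrations. GI50: concentration for 50% inhibition of growth. TGI: total growth inhibition.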

Key:
Test in all cases: DTP human tumour cell line panel, 48 h
[1] = system: 786-0 renal
[2] = system: A498 renal
[3] = system: A549 NSCLC
[4] = system: ACHN renal
[5] = system: BT-549 breast
[6] = system: CAKI-1 renal
[7] = system: CCRF-CEM leukemia
[8] = system: COLO 205 colon
[9] = system: DU-145 prostate
[10] = system: EKVX NSCLC
[11] = system: HCC-2998 colon
[12] = system: HCT-15 colon
[13] = system: HL-60(TB) leukemia
[14] = system: HOP-62 NSCLC
[15] = system: HOP-92 NSCLC
[16] = system: HS 578T breast
[17] = system: HT29 colon
[18] = system: IGROV1 ovarian
[19] = system: KM12 colon
[20] = system: LOX IMVI melanoma
[21] = system: MALME-3M melanoma
[22] = system: MCF7 breast
[23] = system: MDA-MB-231 breast
[24] = system: MDA-MB-435
[25] = system: MOLT-4 leukemia
[26] = system: NCI-H226 lung
[27] = system: NCI-H23 lung
[28] = system: NCI-H460 lung
[29] = system: NCI-H522 lung
[30] = system: NCI/ADR-RES ovarian
[31] = system: OVCAR-3 ovarian
[32] = system: OVCAR-4 ovarian
[33] = system: OVCAR-5 ovarian
[34] = system: OVCAR-8 ovarian
[35] = system: PC-3 prostate
[36] = system: RPMI-8226 leukemia
[37] = system: RXF 393 renal
[38] = system: SF-268 CNS
[39] = system: SF-295 CNS
[40] = system: SF-539 CNS
[41] = system: SK-MEL-2 melanoma
[42] = system: SK-MEL-28 melanoma
[43] = system: SK-MEL-5 melanoma
[44] = system: SK-OV-3 ovarian
[45] = system: SN12C renal
[46] = system: SNB-19 CNS
[47] = system: SNB-75 CNS
[48] = system: SW-620 colon
[49] = system: T-47D breast
[50] = system: TK-10 renal
[51] = system: U251 CNS
[52] = system: UACC-257 melanoma
[53] = system: UACC-62 melanoma
[54] = system: UO-31 renal

## CCCN1C/C(=C\c2ccc(O)c(OC)c2)C(=O)/C(=C/c2ccc(O)c(OC)c2)C1
[1]
  GI50: > 100 µM
  TGI: > 100 µM
[2]
  GI50: > 100 µM
  TGI: > 100 µM
[3]
  GI50: > 100 µM
  TGI: > 100 µM
[4]
  GI50: > 100 µM
  TGI: > 100 µM
[5]
  GI50: > 100 µM
  TGI: > 100 µM
[6]
  GI50: > 100 µM
  TGI: > 100 µM
[7]
  GI50: > 100 µM
  TGI: > 100 µM
[8]
  GI50: > 100 µM
  TGI: > 100 µM
[9]
  GI50: > 100 µM
  TGI: > 100 µM
[10]
  GI50: > 100 µM
  TGI: > 100 µM
[11]
  GI50: > 100 µM
  TGI: > 100 µM
[12]
  GI50: > 100 µM
  TGI: > 100 µM
[13]
  GI50: > 100 µM
  TGI: > 100 µM
[14]
  GI50: > 100 µM
  TGI: > 100 µM
[15]
  GI50: > 100 µM
  TGI: > 100 µM
[16]
  GI50: > 100 µM
  TGI: > 100 µM
[17]
  GI50: > 100 µM
  TGI: > 100 µM
[18]
  GI50: > 100 µM
  TGI: > 100 µM
[19]
  GI50: > 100 µM
  TGI: > 100 µM
[20]
  GI50: > 100 µM
  TGI: > 100 µM
[21]
  GI50: > 100 µM
  TGI: > 100 µM
[22]
  GI50: > 100 µM
  TGI: > 100 µM
[23]
  GI50: > 100 µM
  TGI: > 100 µM
[24]
  GI50: > 100 µM
  TGI: > 100 µM
[25]
  GI50: > 100 µM
  TGI: > 100 µM
[26]
  GI50: > 100 µM
  TGI: > 100 µM
[27]
  GI50: > 100 µM
  TGI: > 100 µM
[28]
  GI50: > 100 µM
  TGI: > 100 µM
[29]
  GI50: > 100 µM
  TGI: > 100 µM
[30]
  GI50: > 100 µM
  TGI: > 100 µM
[31]
  GI50: > 100 µM
  TGI: > 100 µM
[32]
  GI50: > 100 µM
  TGI: > 100 µM
[33]
  GI50: > 100 µM
  TGI: > 100 µM
[34]
  GI50: > 100 µM
  TGI: > 100 µM
[35]
  GI50: > 100 µM
  TGI: > 100 µM
[36]
  GI50: > 100 µM
  TGI: > 100 µM
[37]
  GI50: > 100 µM
  TGI: > 100 µM
[38]
  GI50: > 100 µM
  TGI: > 100 µM
[39]
  GI50: > 100 µM
  TGI: > 100 µM
[40]
  GI50: > 100 µM
  TGI: > 100 µM
[41]
  GI50: > 100 µM
  TGI: > 100 µM
[42]
  GI50: > 100 µM
  TGI: > 100 µM
[43]
  GI50: > 100 µM
  TGI: > 100 µM
[44]
  GI50: > 100 µM
  TGI: > 100 µM
[45]
  GI50: > 100 µM
  TGI: > 100 µM
[46]
  GI50: > 100 µM
  TGI: > 100 µM
[47]
  GI50: > 100 µM
  TGI: > 100 µM
[48]
  GI50: > 100 µM
  TGI: > 100 µM
[49]
  GI50: > 100 µM
  TGI: > 100 µM
[50]
  GI50: > 100 µM
  TGI: > 100 µM
[51]
  GI50: > 100 µM
  TGI: > 100 µM
[52]
  GI50: > 100 µM
  TGI: > 100 µM
[53]
  GI50: > 100 µM
  TGI: > 100 µM
[54]
  GI50: > 100 µM
  TGI: > 100 µM
